# According to patent US8471063B2, “Michael systems as transglutaminase inhibitors” (Zedira GmbH, priority 2006, dated 2013):
# Where a SMILES comes first, the peptide text is derived from it. [ ]: non-standard residue; d: D form. The star is where a group is joined. Nle(5E-ene,6-CO2Et) = CCOC(=O)/C=C/CC[C@H](N)C(=O)O; Cbz = O=C(OCc1ccccc1)*
# Assays:
# Format in all cases: biochemical
# [1] = biological target: T1, recombinant human tissue transglutaminase (His6-rh-TG2) (Homo sapiens, UniProt P21980); experiment: Inactivation of human tissue transglutaminase, fluorescence assay, IC50; details: 5 min preincubation, 37° C.
# T1 sequence (P21980 1-687): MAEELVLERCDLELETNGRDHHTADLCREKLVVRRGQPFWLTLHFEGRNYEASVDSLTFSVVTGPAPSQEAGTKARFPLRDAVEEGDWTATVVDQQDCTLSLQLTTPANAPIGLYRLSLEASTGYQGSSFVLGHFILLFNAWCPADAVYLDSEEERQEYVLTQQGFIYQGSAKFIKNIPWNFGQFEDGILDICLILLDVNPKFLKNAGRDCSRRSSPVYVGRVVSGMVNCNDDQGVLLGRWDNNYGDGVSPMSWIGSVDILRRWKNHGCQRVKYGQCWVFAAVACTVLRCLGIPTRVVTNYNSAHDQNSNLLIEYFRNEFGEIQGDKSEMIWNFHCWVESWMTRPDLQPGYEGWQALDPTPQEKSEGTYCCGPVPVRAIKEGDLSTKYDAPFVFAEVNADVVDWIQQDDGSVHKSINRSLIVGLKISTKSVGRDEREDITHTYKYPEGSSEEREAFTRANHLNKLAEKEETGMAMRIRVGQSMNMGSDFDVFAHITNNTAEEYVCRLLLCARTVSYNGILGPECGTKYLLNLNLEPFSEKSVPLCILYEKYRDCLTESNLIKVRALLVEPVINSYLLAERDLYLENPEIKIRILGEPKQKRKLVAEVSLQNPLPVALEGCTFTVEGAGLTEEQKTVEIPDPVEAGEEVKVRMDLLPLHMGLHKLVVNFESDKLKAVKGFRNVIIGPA
# Description: 250 μg of lyophilized his-tagged recombinant human tissue transglutaminase (His6-rh-TG2) are reconstituted by the addition of 150 μl of water (resulting buffer 50 mM of NaH2PO4, 150 mM of NaCl, pH=8).
# A 10 mM inhibitor stock solution in DMSO is prepared and diluted with buffer (50 mM of Tris-HCl, 10 mM of CaCl2, 5 mM of DTT, pH=7.5, respectively) to the 20-fold of the concentration desired for the inhibition mixture (at least 1/50 dilution resulting in 2% DMSO concentration).
# 900 μl of an assay solution composed of 55.56 mM of Tris, 11.11 mM of CaCl2, 0.11% PEG8000, 5.56 mM of DTT, 5.56 mM of glycine methyl ester and 50 μM of Abz-APE(CAD-DNP)QEA-OH, (patent number:), pH=7.5 are placed in a cuvette and brought to a temperature of 37° C. in the measuring cell of a spectrophotometer. 50 μl of the respective inhibitor solution are added to said solution (resulting in a concentration of less than 0.2% of DMSO in the mixture).
# 7 μl of the transglutaminase solution reconstituted above are diluted with 51 μl of buffer (50 mM of Tris, 100 mM of NaCl, 5 mM of DTT, pH=7.5). 50 μl of said enzyme solution (10 μg His6-rhTG2) are added to the assay solution containing the respective inhibitor concentration. The mixture is incubated for 5 min at 37° C. before the measurement is performed. λexc=313 nm and λem=418 nm, 15 min)
# The resulting enzyme activity was measured by analyzing the slope of the straight line obtained by the increase in fluorescence.
# DMSO is used instead of inhibitor stock solution in order to determine the non-inhibited enzyme activity. IC50 values are determined by plotting the resulting enzyme activity against the logarithm of the inhibitor concentration. IC50 is defined as the concentration of an inhibitor at which enzyme activity is reduced to 50% after 5 min of preincubation.
# FXIII = biological target: T2, FXIII (Homo sapiens, UniProt P00488); experiment: Transglutaminase inhibition, IC50 at FXIII
# T2 sequence (P00488 1-732): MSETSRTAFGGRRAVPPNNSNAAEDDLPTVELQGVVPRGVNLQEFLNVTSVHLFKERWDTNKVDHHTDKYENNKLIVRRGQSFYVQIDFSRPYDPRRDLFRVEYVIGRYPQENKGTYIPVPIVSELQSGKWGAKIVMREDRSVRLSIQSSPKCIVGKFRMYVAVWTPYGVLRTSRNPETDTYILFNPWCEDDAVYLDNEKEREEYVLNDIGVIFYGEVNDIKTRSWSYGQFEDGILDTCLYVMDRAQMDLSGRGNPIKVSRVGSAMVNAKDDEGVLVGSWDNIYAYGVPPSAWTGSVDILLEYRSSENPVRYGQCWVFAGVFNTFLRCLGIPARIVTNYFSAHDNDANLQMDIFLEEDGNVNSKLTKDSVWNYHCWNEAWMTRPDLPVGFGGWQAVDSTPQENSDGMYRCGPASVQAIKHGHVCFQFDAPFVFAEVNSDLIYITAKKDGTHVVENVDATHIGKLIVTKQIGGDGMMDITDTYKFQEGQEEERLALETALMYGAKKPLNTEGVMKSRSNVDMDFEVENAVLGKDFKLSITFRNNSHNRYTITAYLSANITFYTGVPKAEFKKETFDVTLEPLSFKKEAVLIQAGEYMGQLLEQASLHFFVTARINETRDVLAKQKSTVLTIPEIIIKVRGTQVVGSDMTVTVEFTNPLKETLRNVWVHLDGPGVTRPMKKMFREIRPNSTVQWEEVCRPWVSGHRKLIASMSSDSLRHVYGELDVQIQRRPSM
# TG1 = biological target: T3, TG1 (Homo sapiens, UniProt P22735); experiment: Transglutaminase inhibition, IC50 at TG1
# T3 sequence (P22735 1-817): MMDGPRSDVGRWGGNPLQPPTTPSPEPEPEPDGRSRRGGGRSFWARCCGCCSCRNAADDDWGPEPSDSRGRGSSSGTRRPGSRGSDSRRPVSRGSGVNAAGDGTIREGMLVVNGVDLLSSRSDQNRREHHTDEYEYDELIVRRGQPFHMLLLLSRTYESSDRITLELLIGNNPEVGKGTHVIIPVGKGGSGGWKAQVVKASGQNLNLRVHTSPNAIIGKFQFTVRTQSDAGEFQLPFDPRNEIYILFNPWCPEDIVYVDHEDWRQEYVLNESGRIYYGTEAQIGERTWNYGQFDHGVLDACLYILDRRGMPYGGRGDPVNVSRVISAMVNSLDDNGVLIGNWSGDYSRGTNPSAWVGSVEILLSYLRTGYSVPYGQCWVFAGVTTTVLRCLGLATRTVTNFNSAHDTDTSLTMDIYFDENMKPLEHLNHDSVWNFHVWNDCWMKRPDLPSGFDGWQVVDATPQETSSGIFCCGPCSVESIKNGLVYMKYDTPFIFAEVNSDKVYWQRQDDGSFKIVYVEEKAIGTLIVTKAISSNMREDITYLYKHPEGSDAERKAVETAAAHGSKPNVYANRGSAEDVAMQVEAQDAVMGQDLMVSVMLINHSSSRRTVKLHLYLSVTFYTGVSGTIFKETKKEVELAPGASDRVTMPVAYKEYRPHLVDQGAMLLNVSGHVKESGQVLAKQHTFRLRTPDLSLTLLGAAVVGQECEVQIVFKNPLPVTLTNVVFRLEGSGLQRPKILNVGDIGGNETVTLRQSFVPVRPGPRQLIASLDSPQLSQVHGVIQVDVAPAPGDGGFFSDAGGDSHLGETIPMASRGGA
SMILES,IC50 ([1]; Table 1) [µM],IC50 (FXIII; Table 1) [µM],IC50 (TG1; Table 1) [µM],IC50 ([1]; Table 2) [µM],IC50 (FXIII; Table 2) [µM],IC50 (TG1; Table 2) [µM]
"CCOC(=O)/C=C/CC[C@H](NC(=O)OCc1ccccc1)C(=O)N[C@@H](CCC(N)=O)C(=O)N1CCC[C@H]1C(=O)N[C@@H](CC(C)C)C(=O)OC [Compound 2, N^α-benzyloxycarbonyl-{[(E)-(L)-6-amino-hept-2-ene-dicarboxylic acid]-1-ethanoyl}-L-glutaminyl-L-prolinyl-L-leucine methyl ester] (Cbz-[Nle(5E-ene,6-CO2Et)]QPL-OMe)",0.02,> 50,–,–,–,–
"CCOC(=O)/C=C/CC[C@H](NC(=O)OCc1ccccc1)C(=O)N[C@@H](Cc1ccccc1)C(=O)OC [Compound 3, N^α-benzyloxycarbonyl-{[(E)-(L)-6-amino-hept-2-ene-dicarboxylic acid]-1-ethanoyl}-L-phenylalanine methyl ester]",8,2.5,0.2,–,–,–
"CCCCCNC(=O)/C=C/CC[C@H](NC(C)=O)C(=O)N[C@@H](CCC(N)=O)C(=O)N[C@@H](CC(=O)O)C(=O)N1CCC[C@H]1C(=O)OC [Compound 3.2.6, Nr-acetyl-{[(E)-(L)-6.amino-hept-2-ene-dicarboxylic acid]-1-pentylamido}-L-glutaminyl-L-asparatyl-L-proline methyl ester]",–,–,–,> 100,> 100,23
"CC(C)OC(=O)C=CCCC(NC(=O)OCc1ccccc1)C(=O)NC(Cc1ccc(F)cc1)C(=O)N1CCCC1C(=O)O [Compound 3.2.7, N^α-benzyloxycarbonyl)-{[(E)-(L)-6-amino-hept-2-ene-dicarboxylic acid]-1-isopropanoyl}-L-(p-fluoro-phenylalaninyl)-L-proline]",–,–,–,1.5,> 100,3.7
"CC(C)CC(NC(=O)C1CCCCN1C(=O)C(Cc1ccccc1)NC(=O)C(CCC=CC(=O)OCc1ccccc1)NC(=O)OCc1ccccc1)C(N)=O [Compound 3.2.8, N^α-benzyloxycarbonyl)-{[(E)-(L)-6-amino-hept-2-ene-dicarboxylic acid]-1-benzoyl}-L-phenylalaninyl-L-homoprolinyl-L-leucinyl amide]",–,–,–,0.13,> 100,0.825
CCOC(=O)C(=O)/C=C/CC[C@H](NC(=O)OCc1ccccc1)C(=O)N[C@@H](Cc1ccccc1)C(=O)OC [Compound 3.2.9],–,–,–,3.8,> 100,0.53
"COC(=O)/C=C/CC[C@H](NC(=O)OCc1ccccc1)C(=O)N[C@@H](CCC(N)=O)C(=O)N1CCC[C@H]1C(=O)OC [Compound 4, N^α-benzyloxycarbonyl-{[(E)-(L)-6-amino-hept-2-ene-dicarboxylic acid]-1-methanoyl}-L-glutaminyl-L-proline methyl ester]",0.35,> 50,–,–,–,–
CCOC(=O)/C=C/CC[C@H](NC(=O)OCc1ccccc1)C(=O)N[C@H](C(=O)N1CCC[C@H]1C(=O)NCCC(C)C)C(C)C [Compound 5],0.125,> 50,–,–,–,–
"CCOC(=O)/C=C/CC[C@@H](C(=O)N[C@H](C(=O)N1CCC[C@H]1C(=O)OC)C(C)C)N1CCCC1=O [Compound 6, [(E)-(L)-6-(2-oxo-pyrrolidon-1-yl)-hept-2-ene-dicarboxylic acid 1-ethanoyl]-L-valinyl-L-proline methyl ester]",15,> 50,–,–,–,–

# Further lines, results first:
IC50 ([1]; Table 1) [µM],IC50 (FXIII; Table 1) [µM],IC50 (TG1; Table 1) [µM],IC50 ([1]; Table 2) [µM],IC50 (FXIII; Table 2) [µM],IC50 (TG1; Table 2) [µM],SMILES
–,–,–,0.054,> 100,0.25,"COC(=O)[C@H](CC(C)C)NC(=O)[C@@H]1CCCN1C(=O)[C@H](CCC(N)=O)NC(=O)[C@H](CC/C=C/S(C)(=O)=O)NC(=O)OCc1ccccc1 [Compound 3.2.1, N^α-benzyloxycarbonyl-{[(E)-(L)-2-amino-6-methanesulfonyl]-hex-5-enyl}-L-glutaminyl-L-prolinyl-L-leucine methyl ester]"
–,–,–,0.76,> 100,1.3,COC(=O)[C@H](CC(C)C)NC(=O)[C@@H]1CCCN1C(=O)[C@H](CCC(N)=O)NC(=O)[C@H](CC/C=C/S(=O)(=O)N(C)C)NC(=O)OCc1ccccc1 [Compound 3.2.2]
–,–,–,18,> 100,14,"COC(=O)[C@H](CC(C)C)NC(=O)[C@@H]1CCCN1C(=O)[C@H](CCC(N)=O)NC(=O)[C@H](CCC1=CC(=O)CC1)NC(=O)OCc1ccccc1 [Compound 3.2.3, N^α-benzyloxycarbonyl-[(L)-2-amino-4-(3)-oxo-cyclopent-1-enyl]-butyryl-L-glutaminyl-L-prolinyl-L-leucine methyl ester]"
–,–,–,8.9,> 100,0.4,"COC(=O)[C@H](CC(C)C)NC(=O)[C@@H]1CCCN1C(=O)[C@H](CCC(N)=O)NC(=O)[C@H](CC/C=C1\CCOC1=O)NC(=O)OCc1ccccc1 [Compound 3.2.4, N^α-benzyloxycarbonyl[(L)-2-amino-5-(2-oxo-dihydrofurane-(3E)-ylidene)]-pentanoyl-L-glutaminyl-L-prolinyl-L-Ieucine methyl ester]"
–,–,–,23,> 100,–,"COC(=O)C(CC(C)C)NC(=O)C1CCCN1C(=O)C(CCC(N)=O)NC(=O)C(CCC=CC(=O)O)NC(=O)OCc1ccccc1 [Compound 3.2.5, N^α-benzyloxycarbonyl)-[(E)-(L)-6-amino-hept-2-ene-dicarboxylic acid]-L-glutaminyl-L-prolinyl-L-leucine methyl ester]"
